Patent US5789448A, “Benzoylethylene derivative” (Mitsubishi Chemical Corporation, priority 1994, dated 1998)
pIC50: −log10 of the molar value. Read-outs that look alike come from different tables or passages of the source.

Experiments:
[1] = target: T1, human EGF (epithelial cell growth factor) receptor tyrosine kinase (Homo sapiens, UniProt P00533); test: Tyrosine kinase inhibiting activity (EGF receptor partially purified from A431 cell membrane fraction, RR-SRC peptide substrate, gamma-32P-ATP); assay type: biochemical; settings: 10 μM ATP, 1% DMSO, in ice for 30 minutes
T1 construct: to obtain an A431 cell membrane fraction, and this fraction was provided for measurement as a partially purified EGF receptor; endogenous in cells; host or cells: A431 (human squamous cell carcinoma), membrane fraction
Protocol: (§1) In order to evaluate the tyrosine kinase inhibiting activity and the cancer cell growth inhibiting activity of the compound of the present invention, tests were carried out in a partially purified human EGF ([…]) receptor tyrosine kinase activity measuring system and a cell culture system using human cancerous cells.
(Tyrosine kinase inhibiting activity)
The tyrosine kinase inhibiting activity was measured by using an EGF receptor which was partially purified from an A431 cell line derived from human squamous cell carcinoma and by improving the tyrosine kinase activity measurement method described in Linda J. Pike et al., Proceedings of the National Academy of Sciences of the U.S.A. 79, 1443 (1982).
The detailed method is as described below.
A431 cells were cultured in a Dulbecco modified Eagle's medium (DMEM) containing 10% fetal calf serum (FCS), at 37° C. under 5% carbonic acid gas. The cells were homogenized in a solution containing 10 mM N-2-hydroxyethylpiperazino-N'-2-ethanesulfonic acid (Hepes) buffer (pH 7.4), 0.25M saccharose and 0.1 mM EDTA and then centrifuged at 3000 g for 5 minutes. Further, a supernatant thereof was centrifuged at 10000× g for 30 minutes to obtain an A431 cell membrane fraction, and this fraction was provided for measurement as a partially purified EGF receptor which was an enzyme source.
To a reaction mixture of the above-mentioned A431 cell membrane fraction (10 to 15 μg), a 30 mM Hepes buffer (pH 7.7), 2 mM MnCl2, 50 μM Na3 VO4 and a sample dissolved in dimethylsulfoxide (DMSO) (final concentration: 1% DMSO) was added 100 ng of EGF, and then 75 μg of a synthetic substrate RR-SRC peptide (a peptide described in Sequence No. 1) and 10 μM gamma-^32 P-adenosine triphosphoric acid (37 to 42 KBq) were added thereto to start a reaction.
The volume at that time was 60 μl.
The reaction was carried out in ice for 30 minutes, and the reaction was terminated by adding 6 μl of 10 mg/ml bovine serum albumin and 25 μl of 20% trichloroacetic acid. The reaction mixture was left to stand in ice for 30 minutes.
Next, after the mixture was centrifuged at 5000× g for 2 minutes, 40 μl of the supernatant was sampled and adsorbed to P81 phosphocellulose paper.
This was dipped in a 30% acetic acid solution for 15 minutes to fix, washed by dipping in a 15% acetic acid solution for 15 minutes (washing was repeated four times) and measured the count of ^32 P attached to P81 phosphocellulose paper by a liquid scintillation counter, and this value was defined as A.
At the same time, the counts of a reaction in which the sample tested was not added and a reaction in which both the sample and EGF were not added were measured and were defined as B and C, respectively.
The tyrosine kinase inhibiting rate is determined by the following formula.
Inhibiting rate (%)=100-{(B-A)/(B-C)}×100
From the inhibiting rate obtained by changing the addition concentration of the sample, an IC50 value (50% inhibiting concentration) was calculated.

[2] = test system: KB cells of human rhinopharyngeal cancer; test: Cancer cell growth inhibiting activity (KB cells, MTT); assay type: cell-based; settings: read-out: Cancer cell growth inhibiting activity (IC50)
Protocol: as §1
(Cancer cell growth inhibiting activity)
KB cells of human rhinopharyngeal cancer retain EGF receptor on cellular surfaces thereof excessively.
By using these KB cells, investigation of the effect of a sample on growth of cultured cancer cells was carried out by the following method.
2.5×10^3 cells/well of KB cells were sowed on a 96 well dish and cultured in a DMEM:F12 (1:1) medium containing 10% FCS, 50 U/ml penicillin and 50 μg/ml of streptomycin, under conditions of 37° C. and 5% carbonic acid gas for 1 day. Thereafter, a sample dissolved in DMSO was added to the medium (DMSO final concentration: <0.1%) and cultured under the above conditions for 3 days. The sample and the medium were replaced every 24 hours.
The count of the number of living cells was determined by calorimetric quantitation at two wavelengths of 540 nm and 660 nm using a MTT reagent by referring to the measurement method described in Michael C.
At the same time, the count of the number of living cells when the sample was not added was also measured, and the value was defined as b.
The cell growth inhibiting rate was determined by the following formula.
Inhibiting rate (%)=(b-a)/b×100

[3] = KB cells, 3 days, sample and medium replaced every 24 hours, MTT

T1 sequence (P00533 25-1210): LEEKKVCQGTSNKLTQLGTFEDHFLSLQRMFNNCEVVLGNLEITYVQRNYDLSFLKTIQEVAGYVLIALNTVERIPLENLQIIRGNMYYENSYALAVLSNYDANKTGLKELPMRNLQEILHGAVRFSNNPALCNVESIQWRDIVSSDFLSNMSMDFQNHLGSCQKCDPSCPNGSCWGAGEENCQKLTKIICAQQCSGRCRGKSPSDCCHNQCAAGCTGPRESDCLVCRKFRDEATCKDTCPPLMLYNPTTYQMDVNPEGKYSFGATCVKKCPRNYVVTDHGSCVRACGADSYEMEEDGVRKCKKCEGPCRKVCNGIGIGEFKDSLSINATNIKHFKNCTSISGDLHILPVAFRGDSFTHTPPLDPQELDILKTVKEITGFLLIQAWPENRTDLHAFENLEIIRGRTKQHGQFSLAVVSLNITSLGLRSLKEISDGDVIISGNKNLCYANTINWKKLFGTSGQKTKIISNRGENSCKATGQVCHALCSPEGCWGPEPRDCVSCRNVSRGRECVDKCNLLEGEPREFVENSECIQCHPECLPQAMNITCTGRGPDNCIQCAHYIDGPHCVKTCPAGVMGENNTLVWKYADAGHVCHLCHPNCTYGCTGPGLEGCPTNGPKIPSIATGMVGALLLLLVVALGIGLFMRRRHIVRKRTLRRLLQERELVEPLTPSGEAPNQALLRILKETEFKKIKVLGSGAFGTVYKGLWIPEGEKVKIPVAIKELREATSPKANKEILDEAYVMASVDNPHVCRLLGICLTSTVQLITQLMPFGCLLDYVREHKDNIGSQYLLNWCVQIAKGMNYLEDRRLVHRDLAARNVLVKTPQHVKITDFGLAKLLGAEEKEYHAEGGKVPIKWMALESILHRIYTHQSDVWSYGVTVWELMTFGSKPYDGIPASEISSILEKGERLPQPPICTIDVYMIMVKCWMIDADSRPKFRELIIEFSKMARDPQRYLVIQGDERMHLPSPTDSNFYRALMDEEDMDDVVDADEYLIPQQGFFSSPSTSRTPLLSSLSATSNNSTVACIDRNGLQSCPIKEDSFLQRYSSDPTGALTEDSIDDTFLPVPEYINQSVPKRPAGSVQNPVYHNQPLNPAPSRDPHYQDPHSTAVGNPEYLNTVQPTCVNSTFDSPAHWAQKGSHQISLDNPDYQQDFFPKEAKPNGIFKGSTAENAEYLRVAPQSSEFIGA

| pIC50 [2, 3] | Compound | pIC50 [1] | pIC50 ([2]; KB) |
| --- | --- | --- | --- |
|  | COC(=O)C=CC(=O)c1ccc(OC)c(OC)c1 [compound 26] | 6.07 | 5.72 |
| 5.70 | CCN(CC)C(C)(C)C(C#N)=CC(=O)c1ccc(OC)c(OC)c1 [compound 349] | 5.24 |  |
|  | COC(=O)C=CC(=O)c1ccc(OC)cc1 [compound 29] | 5.03 | 5.41 |
|  | CCN(CC)C(C)(C)C(=CC(=O)c1ccc(OC)c(OC)c1)S(=O)(=O)c1cccs1 [compound 352] | 6.33 | 6.20 |
|  | COc1ccc(C(=O)C=CCN2CCCCC2)cc1OC [compound 97] | 5.09 | 5.59 |
|  | CCN(CC)C(C)(C)C(=CC(=O)c1ccc(OC)c(OC)c1)S(=O)(=O)c1ccc(C)cc1 [compound 293] | 5.96 | 6.64 |
|  | CCN(CC)C(C)(C)C(=CC(=O)c1ccc(OC)c(OC)c1)S(=O)(=O)c1ccccc1 [compound 278] | 5.77 | 6.02 |
|  | CC(C(=O)Nc1ccccc1)=C(C)C(=O)c1ccccc1 [compound 253] | 4.42 | 6.38 |
|  | CCN(CC)C(C)(C)C(=CC(=O)c1ccc(OC)c(OC)c1)S(=O)(=O)c1ccc([N+](=O)[O-])cc1 [compound 350] | 5.85 | 6.24 |
|  | COc1ccc(C(=O)C=C(CN(C(C)C)C(C)C)S(=O)(=O)c2ccccc2)cc1OC [compound 335] | 4.55 | 5.51 |
|  | COc1cc(C(=O)C=C(C(C)(C)N2CCCCC2)S(=O)(=O)c2ccccc2)cc2c1OCO2 [compound 290] | 5.30 | 6.08 |
|  | COc1ccc(C(=O)C=CC#N)cc1OC [compound 5] | 6.47 | 6.21 |
| 5.30 | COc1ccc(C(=O)C=C(C(C)(C)N2CCC(C)CC2)S(=O)(=O)c2ccccc2)cc1OC [compound 327] | 4.56 |  |
